Reference: patent US12351570B2 (MERCK PATENT GMBH, priority 2018, dated 2025)

These compounds were tested on MDA-MB-231 cells (assay: Extracellular lactate production inhibition after 4 h, MDA-MB-231). Settings: Homo sapiens, MDA-MB-231.

`Cc1ccc2cccnc2c1S(=O)(=O)Nc1ccccc1C#Cc1ccc(C(=O)N2CCCCC2)nc1` [Compound 385, 7-Methyl-quinoline-8-sulfonic acid {2-[6-(piperidine-1-carbonyl)-pyridin-3-ylethynyl]-phenyl}-amide] and `COc1ccc(S(=O)(=O)Nc2ccccc2C#Cc2ccc(C(=O)N3CCCC3)nc2)c2ncccc12` [Compound 386, 5-Methoxy-quinoline-8-sulfonic acid {2-[6-(pyrrolidine-1-carbonyl)-pyridin-3-ylethynyl]-phenyl}-amide] fall in the same range of IC50: 1000 to 100000 nM for the first, 1000 to 100000 nM for the second.

`COc1ccc(S(=O)(=O)Nc2ccc(Cl)cc2C#Cc2ccc(C(=O)O)nc2)c(C)c1C` [Compound 387, 5-[5-Chloro-2-(4-methoxy-2,3-dimethyl-benzenesulfonylamino)-phenylethynyl]-pyridine-2-carboxylic acid] and `CNc1cc(C#Cc2cc(Cl)ccc2NS(=O)(=O)c2ccc(OC)c(C)c2C)cnc1C(=O)O` [Compound 403, 5-{2-[5-chloro-2-(4-methoxy-2,3-dimethylbenzenesulfonamido)phenyl]ethynyl}-3-(methylamino)pyridine-2-carboxylic acid] fall in the same range of IC50: 10 to 100 nM for the first, 10 to 100 nM for the second.

First: COc1ccc(S(=O)(=O)Nc2ccc(Cl)cc2C#Cc2cnc(C(=O)O)cc2OC)cc1 [Compound 388, 5-[5-Chloro-2-(4-methoxy-benzenesulfonylamino)-phenylethynyl]-4-methoxy-pyridine-2-carboxylic acid]
Second: COc1ccc(S(=O)(=O)Nc2ccccc2C#Cc2cnc(C(=O)O)cc2OC)cc1 [Compound 391, 4-Methoxy-5-[2-(4-methoxy-benzenesulfonylamino)-phenylethynyl]-pyridine-2-carboxylic acid]
The IC50 of the first is lower: 10 to 100 nM for the first, 100 to 1000 nM for the second. The first is the more potent here.

First: COc1cc(C(=O)O)ncc1C#Cc1ccccc1NS(=O)(=O)c1ccc(OC(F)(F)F)c2cccnc12 [Compound 389, 4-Methoxy-5-[2-(5-trifluoromethoxy-quinoline-8-sulfonylamino)-phenylethynyl]-pyridine-2-carboxylic acid]
Second: COCCOC(=O)c1cc(OC)c(C#Cc2ccccc2NS(=O)(=O)c2ccc(OC)c3cccnc23)cn1 [Compound 405, 2-methoxyethyl 4-methoxy-5-{2-[2-(5-methoxyquinoline-8-sulfonamido)phenyl]ethynyl}pyridine-2-carboxylate]
The IC50 of the first is lower: 1 to 10 nM for the first, 100 to 1000 nM for the second.

First: COc1ccc(S(=O)(=O)Nc2ccc(Cl)cc2C#Cc2ccc(C(=O)O)nc2)cc1 [Compound 390, 5-[5-Chloro-2-(4-methoxy-benzenesulfonylamino)-phenylethynyl]-pyridine-2-carboxylic acid]
Second: COc1ccc(NS(=O)(=O)c2ccc(OC)c3cccnc23)c(C#Cc2ccc(C(=O)O)nc2)c1 [Compound 397, 5-[5-Methoxy-2-(5-methoxy-quinoline-8-sulfonylamino)-phenylethynyl]-pyridine-2-carboxylic acid]
The IC50 of the first is higher: 100 to 1000 nM for the first, 10 to 100 nM for the second. The second is the more potent here.

Compared with `COc1ccc(S(=O)(=O)Nc2ccccc2C#Cc2ccc(C(=O)NC(C)C)nc2)c2ncccc12` [Compound 392, 5-[2-(5-Methoxy-quinoline-8-sulfonylamino)-phenylethynyl]-pyridine-2-carboxylic acid isopropylamide], `Cc1ccc2cccnc2c1S(=O)(=O)Nc1ccccc1C#Cc1ccc(C(=O)OCC(O)CO)nc1` (stereo not shown) [Compound 396, 2,3-dihydroxypropyl 5-{2-[2-(7-methylquinoline-8-sulfonamido)phenyl]ethynyl}pyridine-2-carboxylate] is lower in IC50: 100 to 1000 nM for the first, 1 to 10 nM for the second.

First: Cc1ccc(NS(=O)(=O)c2c(C)ccc3cccnc23)c(C#Cc2ccc(C(=O)O)nc2)c1 [Compound 393, 5-[5-Methyl-2-(7-methyl-quinoline-8-sulfonylamino)-phenylethynyl]-pyridine-2-carboxylic acid]
Second: Cc1ccc2cccnc2c1S(=O)(=O)Nc1ccccc1C#Cc1cnc(C(=O)O)c(CO)c1 [Compound 399, 3-(hydroxymethyl)-5-{2-[2-(7-methylquinoline-8-sulfonamido)phenyl]ethynyl}pyridine-2-carboxylic acid]
The IC50 of the first is lower: 1 to 10 nM for the first, 100 to 1000 nM for the second. The first is the more potent here.

Compared with `CCNc1cc(C#Cc2ccccc2NS(=O)(=O)c2cccc3cccnc23)cnc1C(=O)O` [Compound 394, 3-(ethylamino)-5-{2-[2-(quinoline-8-sulfonamido)phenyl]ethynyl}pyridine-2-carboxylic acid], `Cc1ccc2cccnc2c1S(=O)(=O)Nc1ccccc1C#Cc1cnc2c(c1)COC2=O` [Compound 401, 7-methyl-N-[2-(2-{7-oxo-5H,7H-furo[3,4-b]pyridin-3-yl}ethynyl)phenyl]quinoline-8-sulfonamide] is higher in IC50: 1 to 10 nM for the first, 10 to 100 nM for the second.

Compared with `COc1ccc(S(=O)(=O)Nc2ccccc2C#Cc2cnc(C(=O)O)c3ccccc23)c(C)c1C` [Compound 395, 4-[2-(4-Methoxy-2,3-dimethyl-benzenesulfonylamino)-phenylethynyl]-isoquinoline-1-carboxylic acid], `COc1ccc(S(=O)(=O)Nc2ccc(Br)cc2C#Cc2cnc(C(=O)O)c3ccccc23)c(C)c1C` [Compound 398, 4-{2-[5-bromo-2-(4-methoxy-2,3-dimethylbenzenesulfonamido)phenyl]ethynyl}isoquinoline-1-carboxylic acid] is lower in IC50: 100 to 1000 nM for the first, 10 to 100 nM for the second.

`COc1ccc(S(=O)(=O)Nc2ccc(Cl)cc2C#Cc2cnc(C(=O)O)c3ccccc23)c(C)c1C` [Compound 400, 4-[5-Chloro-2-(4-methoxy-2,3-dimethyl-benzenesulfonylamino)-phenylethynyl]-isoquinoline-1-carboxylic acid] and `COc1ccc(S(=O)(=O)Nc2ccccc2C#Cc2cnc(C(=O)O)c(N)c2)c(C)c1C` [Compound 402, 3-amino-5-{2-[2-(4-methoxy-2,3-dimethylbenzenesulfonamido)phenyl]ethynyl}pyridine-2-carboxylic acid] fall in the same range of IC50: 10 to 100 nM for the first, 10 to 100 nM for the second.

First: Cc1ccc2cccnc2c1S(=O)(=O)Nc1ccccc1C#Cc1ccc(C(=O)OCC2COC(C)(C)O2)nc1 (stereo not shown) [Compound 404, (2,2-dimethyl-1,3-dioxolan-4-yl)methyl 5-{2-[2-(7-methylquinoline-8-sulfonamido)phenyl]ethynyl}pyridine-2-carboxylate]
Second: COc1cc(C(=O)OCC2COC(C)(C)O2)ncc1C#Cc1ccccc1NS(=O)(=O)c1c(C)ccc2cccnc12 (stereo not shown) [Compound 406, (2,2-dimethyl-1,3-dioxolan-4-yl)methyl 4-methoxy-5-{2-[2-(7-methylquinoline-8-sulfonamido)phenyl]ethynyl}pyridine-2-carboxylate]
The IC50 of the first is higher: 100 to 1000 nM for the first, 10 to 100 nM for the second.

First: Cc1ccc2cccnc2c1S(=O)(=O)Nc1ccccc1C#Cc1ccc(C(=O)OCCCCN(C)C)nc1 [Compound 407, 4-(dimethylamino)butyl 5-{2-[2-(7-methylquinoline-8-sulfonamido)phenyl]ethyny}pyridine-2-carboxylate]
Second: Cc1ccc2cccnc2c1S(=O)(=O)Nc1ccccc1C#Cc1ccc(C(=O)OCCOCCO)nc1 [Compound 409, 2-(2-hydroxyethoxy)ethyl 5-{2-[2-(7-methylquinoline-8-sulfonamido)phenyl]ethynyl}pyridine-2-carboxylate]
The IC50 of the first is higher: 1000 to 100000 nM for the first, 100 to 1000 nM for the second.

`COc1cc(C(=O)OCC(O)CO)ncc1C#Cc1ccccc1NS(=O)(=O)c1c(C)ccc2cccnc12` (stereo not shown) [Compound 408, 2,3-dihydroxypropyl 4-methoxy-5-{2-[2-(7-methylquinoline-8-sulfonamido)phenyl]ethynyl}pyridine-2-carboxylate] showed an IC50 of 10 to 100 nM.
